# Where two headings read alike, the source gives them in different places.
# Assays:
# [1] = prior art; cited from earlier work
# [2] = test system: rabbit platelet rich plasma; experiment: Inhibition of U-46619 induced platelet aggregation in rabbit platelet rich plasma; format: cell-based
# Description: (§1) The platelet aggregation was studied in rabbit and human platelet rich plasma (J. Cardiovasc. Pharmacol. 14 suppl. 11; page 120, 1989). In each batch of platelet rich rabbit plasma 8 dose response curves were registered with the thromboxane mimetic U-46619 (0.25-4.0 μM) in the presence of 0, 10^-7, 10^-6 or 10^-5 moles of SIN-1A/βCD complex. The dose response curves were performed in random sequence.
# [3] = test system: human platelet rich plasma; experiment: Inhibition of U46619 induced platelet aggregation in human citrate platelet rich plasma; format: cell-based
# Description: as §1
# Both amplitude and slope of the aggregation curve were evaluated.
# [4] = known; SIN-1 in solid state, SIN-1A open-chain tautomer; cited from earlier work
compound,measurement,setting,value
"CCN(CC)N(O)N=O [DEANO, diethylamine-nitric oxide adduct]",half-life,[1],about 2 minutes
"N=c1c[n+](N2CCOCC2)[n-]o1 [SIN-1, 3-morpholino-sydnonimine]",IC50,"[2]; Oryctolagus cuniculus, rabbit platelet rich plasma, U46619 4 μM, n=7, read-out: pD2 (negative logarithm of concentration producing 50% inhibition) (converted)",2.69 µM
same,IC50,"[3]; Table 4, amplitude of aggregation curve, read-out: pD2, 50% inhibition of aggregation, amplitude (converted)",15.8 µM
same,IC50,"[3]; Table 4, slope of aggregation curve, read-out: pD2, 50% inhibition of aggregation, slope (converted)",14.1 µM
"N#CCN(N=O)N1CCOCC1 [SIN-1A, N-morpholino-N-nitrosoaminoacetonitrile]",stability,[4],extremely unstable
NCCCNCCCCN(CCCN)N(O)N=O [SPNO],half-life,[1],39 min
CCCCCC(O)/C=C/C1C2CC(CO2)C1C/C=C\CCCC(=O)O (stereo not shown) [U46619],induction of platelet aggregation,[2]; thromboxane mimetic,concentration-related aggregation
